One compound from patent US12018258B2, “Mobile-CRISPRi plasmids and related methods” (CZ Biohub SF, LLC, priority 2019, dated 2024) can be followed below.

One assay has as its system Klebsiella pneumoniae. The following applies: MIC assay, n=3. How it is done: (§1) MIC assays were performed using the broth microdilution method as previously described in Wiegand et al. Agar and broth dilution methods to determine the minimal inhibitory concentration (MIC) of antimicrobial substances. Nat. Protoc. 3, 163 (2008) (28), except that 0.1% arabinose (for P. aeruginosa) or 100 μM IPTG (for E. aerogenes) was added to induce dcas9 expression, and K. pneumoniae cultures were shaken to reduce clumping. Three biological replicates were grown for MIC assays. Growth curves shown in FIG. 3 were set up in exactly the same manner as the MIC assays, except that cultures were grown with agitation in a plate reader (BioTek) for ˜16 hrs. P-values for comparing MICs between control sgRNA and folA sgRNA strains were obtained using an unpaired two-tailed t-test with Welch's correction to account for unequal variances between samples and calculated using GraphPad Prism 7.0e.

Another assay deals with Enterobacter aerogenes. The following applies: MIC assay, n=3. How it is done: as §1
Assay [1] deals with pathogenic Gammaproteobacteria associated with antibiotic resistance.
Protocol: MIC assays were performed using the broth microdilution method as previously described in Wiegand et al. Agar and broth dilution methods to determine the minimal inhibitory concentration (MIC) of antimicrobial substances. […] 3, 163 (2008) (28), except that 0.1% arabinose (for P. aeruginosa) or 100 μM IPTG (for E. aerogenes) was added to induce dcas9 expression, and K. pneumoniae cultures were shaken to reduce clumping. Three biological replicates were grown for MIC assays. […] P-values for comparing MICs between control sgRNA and folA sgRNA strains were obtained using an unpaired two-tailed t-test with Welch's correction to account for unequal variances between samples and calculated using GraphPad Prism 7.0e.

For `COc1cc(Cc2cnc(N)nc2N)cc(OC)c1OC` [trimethoprim], the “sensitivity to trimethoprim after CRISPRi knockdown of folA” value in the assay with Klebsiella pneumoniae and in the assay on Enterobacter aerogenes was “increased sensitivity” in each case. Also, the “growth of the folA knockdown strains” value in assay [1] (trimethoprim concentrations below the MIC for the wild type bacteria, data not shown) is on record as “completely inhibited growth”. Further, the “shift of the minimal inhibitory concentration (MIC)” value in assay [1] ({}) is 2-4 fold.
